# Experimental data published in ChEMBL document CHEMBL1201862, “PubChem BioAssay data set” (2004).
# Calls of active or inactive are those of the source.
# How the values were obtained:
# [1] = target: Bcl-2-like protein 10 (Homo sapiens, UniProt Q9HD36); assay: Bcl-B/TR3 peptide binding disruption – biochemical, fluorescence polarization, FITC-TR3 peptide, selectivity assay for Bfl-1 inhibitor project, primary screen (AID 748);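 note: fluorescence polarization from a fluorescein-labelled TR3 peptide binding purified Bcl-B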
# [2] = target: T1, RNA-binding protein pos-1 (Caenorhabditis elegans, UniProt G5EF15); assay: disruptors of C. elegans POS-1 RNA interaction – biochemical, fluorescence polarization, dose response (AID 1964);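 note: purified POS-1 fused to maltose binding protein made in E. coli; potency of compounds blocking POS-1 binding to fluorescent RNA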
# T1 sequence (G5EF15 whole entry): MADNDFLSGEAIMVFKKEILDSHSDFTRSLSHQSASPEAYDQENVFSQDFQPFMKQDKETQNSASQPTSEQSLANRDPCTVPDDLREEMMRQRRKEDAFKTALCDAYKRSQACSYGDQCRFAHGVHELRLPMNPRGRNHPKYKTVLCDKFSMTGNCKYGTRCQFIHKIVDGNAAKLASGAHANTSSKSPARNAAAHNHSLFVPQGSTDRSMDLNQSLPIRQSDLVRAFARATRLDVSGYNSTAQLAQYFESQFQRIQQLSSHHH
# [3] = target: Guanyl-specific ribonuclease T1 (Aspergillus oryzae (strain ATCC 42149 / RIB 40), UniProt P00651); assay: inhibition of ribonuclease T1 activity – biochemical, fluorescence polarization, 1536-well, counter-screen for TPT1 inhibitor project, dose response (AID 2167)
# [4] = target: T2, Zinc finger protein mex-5 (Caenorhabditis elegans, UniProt Q9XUB2); assay: potency of MEX-5 RNA-binding blockers – biochemical, C. elegans, fluorescence polarization, dose response (AID 1960)
# T2 sequence (Q9XUB2 whole entry): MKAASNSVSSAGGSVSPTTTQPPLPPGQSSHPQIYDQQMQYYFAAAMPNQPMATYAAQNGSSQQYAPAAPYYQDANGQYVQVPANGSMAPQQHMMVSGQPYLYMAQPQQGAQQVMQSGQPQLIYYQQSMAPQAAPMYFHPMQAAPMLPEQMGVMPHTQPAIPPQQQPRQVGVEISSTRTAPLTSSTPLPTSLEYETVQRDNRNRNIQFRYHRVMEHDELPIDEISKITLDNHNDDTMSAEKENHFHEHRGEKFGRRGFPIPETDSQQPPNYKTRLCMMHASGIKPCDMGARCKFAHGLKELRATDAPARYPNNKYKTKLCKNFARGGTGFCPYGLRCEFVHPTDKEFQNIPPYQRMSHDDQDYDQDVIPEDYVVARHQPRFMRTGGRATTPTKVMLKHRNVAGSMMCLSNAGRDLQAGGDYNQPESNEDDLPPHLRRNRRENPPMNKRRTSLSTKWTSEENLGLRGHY
# [5] = target: Likely tRNA 2'-phosphotransferase (Candida albicans (strain SC5314 / ATCC MYA-2876) (Yeast), UniProt Q5A7N4); assay: inhibition of Candida TPT1 enzyme activity – biochemical, fluorescence polarization, dose response (AID 2160)
# [6] = Trypanosoma cruzi growth suppression in host cells – NIH3T3 host cells, beta-gal luminescence, confirmation (AID 2044); format: functional, cell-based;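 note: intracellular parasites grown in NIH/3T3 mouse fibroblasts as host cells; luminescent beta-galactosidase reporter signal from transgenic T. cruzi replicating inside host cells; inhibitors lower the luminescence signal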
# [7] = NIH3T3 cell viability loss – ATP luminescence, mouse fibroblasts, counter-screen, dose response (AID 2010); format: functional, cell-based;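 note: cells exposed to compound for about 90 hours before reading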
# [8] = cells
# [9] = target: T3, NADPH oxidase 1 (Homo sapiens, UniProt Q9Y5S8); format: functional, cell-based;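 note: Cell-based assay with luminescence read-out, IC50 derived from inhibitor dose-response curves; intracellular ROS from endogenous NOX1 in intact HT29 colon cancer cells; potency of inhibitors that lower the ROS luminescence signal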
# T3 sequence (Q9Y5S8 whole entry): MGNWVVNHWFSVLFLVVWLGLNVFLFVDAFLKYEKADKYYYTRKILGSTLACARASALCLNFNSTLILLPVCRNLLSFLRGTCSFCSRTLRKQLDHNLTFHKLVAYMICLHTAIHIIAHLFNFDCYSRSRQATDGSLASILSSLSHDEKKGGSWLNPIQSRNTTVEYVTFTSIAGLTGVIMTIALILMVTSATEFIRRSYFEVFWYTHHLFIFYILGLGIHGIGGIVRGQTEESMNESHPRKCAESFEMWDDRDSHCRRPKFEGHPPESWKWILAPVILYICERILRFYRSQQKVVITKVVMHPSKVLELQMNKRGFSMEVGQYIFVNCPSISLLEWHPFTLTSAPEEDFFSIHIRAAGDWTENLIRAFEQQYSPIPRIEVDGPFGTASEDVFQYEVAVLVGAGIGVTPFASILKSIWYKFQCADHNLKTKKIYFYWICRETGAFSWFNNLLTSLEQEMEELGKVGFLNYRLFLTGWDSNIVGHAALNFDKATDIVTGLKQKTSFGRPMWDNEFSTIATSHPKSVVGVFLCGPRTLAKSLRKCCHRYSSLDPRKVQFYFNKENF
# [10] = Luminescence Cell-Based Dose Response to Identify Activators of 5'UTR Stem-Loop Driven Prion Protein mRNA Translation in H4-C Neuroglioblastoma Cells. [Related pubchem assays: 1829 (Project Summary), 1814 (Primary HTS)]; format: functional
# [11] = Luminescence Cell-Based Dose Response HTS to Identify Activators of Luciferase Translation or Activity in H4 […] Cells. [Related pubchem assays: 1829 (Project Summary), 1814 (Primary HTS)]; format: functional
# [12] = Luminescence Cell-Based Dose Response to Identify Activators of Luciferase Translation or Activity in H4-C Neuroglioblastoma Cells. [Related pubchem assays: 1829 (Project Summary), 1814 (Primary HTS)]; format: functional
# [13] = Luminescence Cell-Based Dose Confirmation to Identify Activators of 5'UTR Stem-Loop Driven Alpha-Synuclein mRNA Translation in H4 Neuroglioblastoma Cells. [Related pubchem assays: 1829 (Project Summary), 1814 (Primary HTS)]; format: functional
# [14] = target: Eukaryotic translation initiation factor 4H (Homo sapiens, UniProt Q15056); assay: eIF4H binding inhibition – biochemical, uHTS, fluorescence polarization, translation initiation inhibitor project, primary screen (AID 2012)
# [15] = target: Polyadenylate-binding protein 1 (Homo sapiens, UniProt P11940); assay: blockers of PABP interaction with poly(A) – biochemical, fluorescence polarization, […] (AID 2014)
# [16] = target: DNA dC->dU-editing enzyme APOBEC-3A (Homo sapiens, UniProt P31941); assay: Dose Response confirmation of small molecule APOBEC3A DNA Deaminase Inhibitors via a fluorescence-based single-stranded DNA deaminase assay. [Related pubchem assays (depositor defined):AID493011, AID493024]; format: functional
# [17] = target: DNA dC->dU-editing enzyme APOBEC-3G (Homo sapiens, UniProt Q9HC16); format: functional;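 note: Dose-response counterscreen measuring inhibition of APOBEC3G DNA deaminase activity, run while confirming APOBEC3A inhibitors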
# Sequence of DNA dC->dU-editing enzyme APOBEC-3G (Q9HC16 whole entry): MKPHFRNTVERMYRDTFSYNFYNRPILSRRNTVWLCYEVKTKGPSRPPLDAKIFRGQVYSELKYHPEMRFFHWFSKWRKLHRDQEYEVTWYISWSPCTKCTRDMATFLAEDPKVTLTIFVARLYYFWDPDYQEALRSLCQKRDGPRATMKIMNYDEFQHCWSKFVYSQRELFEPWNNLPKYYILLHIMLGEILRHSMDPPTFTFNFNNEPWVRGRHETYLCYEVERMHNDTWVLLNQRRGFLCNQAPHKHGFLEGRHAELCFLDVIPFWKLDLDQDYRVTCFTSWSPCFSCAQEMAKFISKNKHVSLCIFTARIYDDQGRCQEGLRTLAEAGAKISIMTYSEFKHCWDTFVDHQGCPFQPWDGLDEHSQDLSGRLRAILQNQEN
# Sequence of DNA dC->dU-editing enzyme APOBEC-3A (P31941 whole entry): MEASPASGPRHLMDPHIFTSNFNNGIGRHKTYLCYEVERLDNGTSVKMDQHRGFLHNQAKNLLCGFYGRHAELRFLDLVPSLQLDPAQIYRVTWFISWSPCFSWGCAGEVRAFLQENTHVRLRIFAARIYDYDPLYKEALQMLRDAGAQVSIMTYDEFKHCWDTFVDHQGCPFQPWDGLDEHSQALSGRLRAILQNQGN
# Sequence of Likely tRNA 2'-phosphotransferase (Q5A7N4 whole entry): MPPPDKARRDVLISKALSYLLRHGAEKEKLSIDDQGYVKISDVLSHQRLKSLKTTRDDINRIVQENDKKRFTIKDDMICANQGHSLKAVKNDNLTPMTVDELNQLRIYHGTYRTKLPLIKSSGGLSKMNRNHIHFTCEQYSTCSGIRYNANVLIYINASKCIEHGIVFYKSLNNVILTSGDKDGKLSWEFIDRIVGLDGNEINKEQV
# Sequence of Bcl-2-like protein 10 (Q9HD36 whole entry, the tested form may be a part): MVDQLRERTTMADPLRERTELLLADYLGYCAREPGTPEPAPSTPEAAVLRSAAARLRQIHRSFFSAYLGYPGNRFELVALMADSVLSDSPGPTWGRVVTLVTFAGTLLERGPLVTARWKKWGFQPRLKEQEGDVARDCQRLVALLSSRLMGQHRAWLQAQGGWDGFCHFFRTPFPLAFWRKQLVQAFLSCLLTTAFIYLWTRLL
# Sequence of Guanyl-specific ribonuclease T1 (P00651 whole entry): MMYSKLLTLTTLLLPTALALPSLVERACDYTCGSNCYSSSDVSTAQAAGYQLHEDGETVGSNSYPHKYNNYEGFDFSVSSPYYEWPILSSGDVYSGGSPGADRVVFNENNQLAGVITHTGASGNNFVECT
# Sequence of Polyadenylate-binding protein 1 (P11940 whole entry): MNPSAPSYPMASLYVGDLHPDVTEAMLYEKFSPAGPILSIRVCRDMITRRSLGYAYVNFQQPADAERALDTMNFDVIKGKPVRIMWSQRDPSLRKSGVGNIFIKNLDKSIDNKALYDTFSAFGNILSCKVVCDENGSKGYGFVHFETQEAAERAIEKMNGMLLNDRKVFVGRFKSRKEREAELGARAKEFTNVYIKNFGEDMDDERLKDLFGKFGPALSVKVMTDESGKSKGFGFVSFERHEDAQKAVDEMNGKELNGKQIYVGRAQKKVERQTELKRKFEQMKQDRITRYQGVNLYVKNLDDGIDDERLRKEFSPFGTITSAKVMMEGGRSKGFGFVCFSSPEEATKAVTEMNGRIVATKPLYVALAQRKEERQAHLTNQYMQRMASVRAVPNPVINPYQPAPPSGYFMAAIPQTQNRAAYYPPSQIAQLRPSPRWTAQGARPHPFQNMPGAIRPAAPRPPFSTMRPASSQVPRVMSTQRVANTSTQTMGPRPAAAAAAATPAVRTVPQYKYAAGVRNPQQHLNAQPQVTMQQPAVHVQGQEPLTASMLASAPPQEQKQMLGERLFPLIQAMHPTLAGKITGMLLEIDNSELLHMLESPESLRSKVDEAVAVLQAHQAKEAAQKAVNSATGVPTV
compound,measurement,setting,value
O=C(COC(=O)CC12CC3CC(CC(C3)C1)C2)Nc1ncc(Cl)cc1Cl,IC50,[1],40.2 µM (active)
CCOc1cc(/C=C2\C(=O)NC(=O)N(CCc3ccc(F)cc3)C2=O)ccc1O,EC50,[2],> 300 µM (not active)
same,IC50,[3],28 µM (not active)
same,EC50,[4],> 300 µM (not active)
same,IC50,[5],> 55.7 µM (not active)
Cc1nn(C(C)C)c(C)c1CN1CCCC(CCC(=O)NCc2ccccc2F)C1 (stereo not given),EC50,[6],< 0.1 µM (active)
same,EC50,[7],> 60 µM (not active)
same,EC50,[8],< 0.004 µM (active)
O=[N+]([O-])c1ccc2c(c1)Sc1ccc(C(F)(F)F)cc1N2,IC50,[9],1.41 µM (active)
O=C(CCC1CCCN(Cc2cccc3c2OCO3)C1)NCc1ccc(F)c(F)c1 (stereo not given),EC50,[6],< 0.1 µM (active)
same,EC50,[7],> 60 µM (not active)
same,EC50,[8],0.216 µM (active)
Cc1cc(=O)oc2cc(NC(=O)c3ccccc3Cl)ccc12,EC50,[10],0.345 µM (active)
same,EC50,[11],< 0.1 µM (active)
same,EC50,[12],0.364 µM (active)
same,EC50,[13],0.208 µM (active)
C[N+]1(CC(O)c2ccccc2)CCCCCC1 (stereo not given),IC50,[14],60.9 µM (active)
same,IC50,[15],5.42 µM (active)
same,IC50,[16],2.71 µM (active)
same,IC50,[17],4.26 µM (active)
